Laboratory results from patent US8642067B2, “Methods and compositions for intraocular administration to treat ocular conditions” (Allergen, Inc., priority 2007, dated 2014).

Experiments:
macula edema patient = assay: Treatment of macular edema with intravitreal TKI composition (ETDRS visual acuity chart); format: in vivo, human; details: twelve months after first injection; 1 mg intravitreal every 4 months; high viscosity hyaluronate solution such as Example 13 formulation
Procedure: An obese patient with symptoms of diabetes presents with vision loss due to macula edema with central retinal vein occlusion and/or branch retinal vein occlusion. They receive intravitreal injection of 1 mg of a high viscosity TKI (polymeric hyaluronate based) solution containing COMPOUND F, such as the Example 13 formulation. Equivalent injections are made every 4 months.

in vivo = details: female, albino, rabbit
Procedure: Vitreous humor samples (n=4 eyes per timepoint) were collected at 0.5, 1, 2, 4, 8, and 12 hr postdose. The TKI concentration in the vitreous humor was determined using a liquid chromatography tandem mass spectrometry method (LC-MS/MS).

Cc1cc(C(=O)Nc2cccc(C#Cc3cncc(C(=O)N=S(C)(=O)c4ccc(CCC(=O)O)cc4)c3)c2)n(C)n1 (stereo not drawn) [COMPOUND F]
improved best corrected visual acuity from baseline (ETDRS chart) (macula edema patient): fifteen

Nc1ccc2c(c1)/C(=C1\C(=O)Nc3ccc(Cl)cc31)OC2 [COMPOUND A, 3-(6-Amino-3H-isobenzofuran-1-ylidene)-5-chloro-1,3-dihydro-indol-2-one]
AUC(0-t) (in vivo): 778 ng·h/mL | C0 (in vivo): 566 ng/mL | Vd (in vivo): 0.000705 L | clearance (in vivo): 0.00433 mL/min | half-life (in vivo): 2.59 h
